Experimental data reported in ChEMBL document CHEMBL6109097, “Structure-based design of novel 2,4,5-trisubstituted pyrimidine derivatives as potent HIV-1 NNRTIs by exploiting the tolerant regions in NNTRIs binding pocket” (Eur J Med Chem, 2025).

Target: Human immunodeficiency virus type 1 reverse transcriptase (Human immunodeficiency virus 1, UniProt Q72547)
Experiment: Inhibition of wild type HIV-1 reverse transcriptase assessed as reduction in biotin-dUTP incorporation in cDNA preincubated with compound for 1 hr in presence of biotin-labeled dNTPs by ELISA
Settings: not given

Structure (SMILES)	IC50 [nM]
Cc1cc(/C=C/C#N)cc(C)c1Oc1nc(Nc2ccc(N3CCS(=O)(=O)CC3)c(F)c2)ncc1-c1cncnc1	200
Cc1cc(/C=C/C#N)cc(C)c1Oc1nc(Nc2ccc(N3CCN(S(C)(=O)=O)CC3)c(C#N)c2)ncc1-c1cccnc1	330
Cc1cc(/C=C/C#N)cc(C)c1Oc1nc(Nc2ccc(N3CCN(S(C)(=O)=O)CC3)c(F)c2)ncc1-c1cncnc1	490

System: not listed separately
Experiment: Selectivity index, ratio of CC50 for cytotoxicity against human MT4 cells assessed as reduction in cell viability to EC50 for antiviral activity against human MT4 cells assessed as protection against virus-induced cytopathic effect
Assay type: toxicity, cell-based
Settings: read-out: Ratio CC50/EC50

Structure (SMILES)	selectivity ratio
Cc1cc(/C=C/C#N)cc(C)c1Oc1nc(Nc2ccc(N3CCS(=O)(=O)CC3)c(C#N)c2)ncc1-c1cnc(F)nc1	110
Cc1cc(/C=C/C#N)cc(C)c1Oc1nc(Nc2ccc(N3CCS(=O)(=O)CC3)c(C#N)c2)ncc1-c1cncnc1	258
Cc1cc(/C=C/C#N)cc(C)c1Oc1nc(Nc2ccc(N3CCS(=O)(=O)CC3)c(C#N)c2)ncc1-c1cnc(N)nc1	22
Cc1cc(/C=C/C#N)cc(C)c1Oc1nc(Nc2ccc(N3CCS(=O)(=O)CC3)c(F)c2)ncc1-c1ccc(F)nc1	> 221
Cc1cc(/C=C/C#N)cc(C)c1Oc1nc(Nc2ccc(N3CCN(S(C)(=O)=O)CC3)c(C#N)c2)ncc1-c1cnc(N)nc1	5390
Cc1cc(/C=C/C#N)cc(C)c1Oc1nc(Nc2ccc(N3CCN(S(C)(=O)=O)CC3)c(C#N)c2)ncc1-c1ccc(F)nc1	> 7620
Cc1cc(/C=C/C#N)cc(C)c1Oc1nc(Nc2ccc(N3CCS(=O)(=O)CC3)c(C#N)c2)ncc1-c1ccc(F)nc1	> 7830
Cc1cc(/C=C/C#N)cc(C)c1Oc1nc(Nc2ccc(N3CCS(=O)(=O)CC3)c(F)c2)ncc1-c1cncnc1	> 40500
Cc1cc(/C=C/C#N)cc(C)c1Oc1nc(Nc2ccc(N3CCN(S(C)(=O)=O)CC3)c(C#N)c2)ncc1-c1cccnc1	22700
Cc1cc(/C=C/C#N)cc(C)c1Oc1nc(Nc2ccc(N3CCN(S(C)(=O)=O)CC3)c(F)c2)ncc1-c1cncnc1	> 12900

System: Human immunodeficiency virus 1
Experiment: Antiviral activity against NNRTI-resistant HIV-1 harboring F227L/V106A double mutant infected in human MT4 cells assessed as protection against virus-induced cytopathic effect incubated for 5 days by MTT assay
Assay type: functional, organism-based
Settings: Human immunodeficiency virus 1, MT4, 120 h

Structure (SMILES)	EC50 [nM]
Cc1cc(/C=C/C#N)cc(C)c1Oc1nc(Nc2ccc(N3CCN(S(C)(=O)=O)CC3)c(C#N)c2)ncc1-c1cnc(N)nc1	96
Cc1cc(/C=C/C#N)cc(C)c1Oc1nc(Nc2ccc(N3CCS(=O)(=O)CC3)c(F)c2)ncc1-c1cncnc1	280
Cc1cc(/C=C/C#N)cc(C)c1Oc1nc(Nc2ccc(N3CCN(S(C)(=O)=O)CC3)c(C#N)c2)ncc1-c1cccnc1	230
Cc1cc(/C=C/C#N)cc(C)c1Oc1nc(Nc2ccc(N3CCN(S(C)(=O)=O)CC3)c(F)c2)ncc1-c1cncnc1	313

System: not listed separately
Experiment: Cytotoxicity against human MT4 cells assessed as reduction in cell viability incubated for 5 days by MTT assay
Assay type: toxicity, cell-based
Settings: time 5 day

Structure (SMILES)	CC50 at 120 h [nM]
Cc1cc(/C=C/C#N)cc(C)c1Oc1nc(Nc2ccc(N3CCS(=O)(=O)CC3)c(C#N)c2)ncc1-c1cnc(F)nc1	23900
Cc1cc(/C=C/C#N)cc(C)c1Oc1nc(Nc2ccc(N3CCS(=O)(=O)CC3)c(C#N)c2)ncc1-c1cncnc1	2400
Cc1cc(/C=C/C#N)cc(C)c1Oc1nc(Nc2ccc(N3CCS(=O)(=O)CC3)c(C#N)c2)ncc1-c1cnc(N)nc1	800
Cc1cc(/C=C/C#N)cc(C)c1Oc1nc(Nc2ccc(N3CCS(=O)(=O)CC3)c(F)c2)ncc1-c1ccc(F)nc1	> 212000
Cc1cc(/C=C/C#N)cc(C)c1Oc1nc(Nc2ccc(N3CCN(S(C)(=O)=O)CC3)c(C#N)c2)ncc1-c1cnc(N)nc1	38600
Cc1cc(/C=C/C#N)cc(C)c1Oc1nc(Nc2ccc(N3CCN(S(C)(=O)=O)CC3)c(C#N)c2)ncc1-c1ccc(F)nc1	> 200000
Cc1cc(/C=C/C#N)cc(C)c1Oc1nc(Nc2ccc(N3CCS(=O)(=O)CC3)c(C#N)c2)ncc1-c1ccc(F)nc1	> 210000
Cc1cc(/C=C/C#N)cc(C)c1Oc1nc(Nc2ccc(N3CCS(=O)(=O)CC3)c(F)c2)ncc1-c1cncnc1	> 219000
Cc1cc(/C=C/C#N)cc(C)c1Oc1nc(Nc2ccc(N3CCN(S(C)(=O)=O)CC3)c(C#N)c2)ncc1-c1cccnc1	179000
Cc1cc(/C=C/C#N)cc(C)c1Oc1nc(Nc2ccc(N3CCN(S(C)(=O)=O)CC3)c(F)c2)ncc1-c1cncnc1	> 208000

System: Human immunodeficiency virus 1
Experiment: Antiviral activity against NNRTI-resistant HIV-1 harboring Y188L mutant infected in human MT4 cells assessed as protection against virus-induced cytopathic effect incubated for 5 days by MTT assay
Assay type: functional, organism-based
Settings: Human immunodeficiency virus 1, MT4, 120 h

Structure (SMILES)	EC50 [nM]
Cc1cc(/C=C/C#N)cc(C)c1Oc1nc(Nc2ccc(N3CCN(S(C)(=O)=O)CC3)c(C#N)c2)ncc1-c1cnc(N)nc1	> 38600
Cc1cc(/C=C/C#N)cc(C)c1Oc1nc(Nc2ccc(N3CCS(=O)(=O)CC3)c(F)c2)ncc1-c1cncnc1	1270
Cc1cc(/C=C/C#N)cc(C)c1Oc1nc(Nc2ccc(N3CCN(S(C)(=O)=O)CC3)c(C#N)c2)ncc1-c1cccnc1	550
Cc1cc(/C=C/C#N)cc(C)c1Oc1nc(Nc2ccc(N3CCN(S(C)(=O)=O)CC3)c(F)c2)ncc1-c1cncnc1	2200

System: Human immunodeficiency virus 1
Experiment: Antiviral activity against NNRTI-resistant HIV-1 harboring Y181C mutant infected in human MT4 cells assessed as protection against virus-induced cytopathic effect incubated for 5 days by MTT assay
Assay type: functional, organism-based
Settings: Human immunodeficiency virus 1, MT4, 120 h

Structure (SMILES)	EC50 [nM]
Cc1cc(/C=C/C#N)cc(C)c1Oc1nc(Nc2ccc(N3CCN(S(C)(=O)=O)CC3)c(C#N)c2)ncc1-c1cnc(N)nc1	42
Cc1cc(/C=C/C#N)cc(C)c1Oc1nc(Nc2ccc(N3CCS(=O)(=O)CC3)c(F)c2)ncc1-c1cncnc1	170
Cc1cc(/C=C/C#N)cc(C)c1Oc1nc(Nc2ccc(N3CCN(S(C)(=O)=O)CC3)c(C#N)c2)ncc1-c1cccnc1	150
Cc1cc(/C=C/C#N)cc(C)c1Oc1nc(Nc2ccc(N3CCN(S(C)(=O)=O)CC3)c(F)c2)ncc1-c1cncnc1	200

System: Human immunodeficiency virus 1
Experiment: Antiviral activity against NNRTI-resistant HIV-1 harboring K103N mutant infected in human MT4 cells assessed as protection against virus-induced cytopathic effect incubated for 5 days by MTT assay
Assay type: functional, organism-based
Settings: Human immunodeficiency virus 1, MT4, 120 h

Structure (SMILES)	EC50 [nM]
Cc1cc(/C=C/C#N)cc(C)c1Oc1nc(Nc2ccc(N3CCN(S(C)(=O)=O)CC3)c(C#N)c2)ncc1-c1cnc(N)nc1	6.7
Cc1cc(/C=C/C#N)cc(C)c1Oc1nc(Nc2ccc(N3CCS(=O)(=O)CC3)c(F)c2)ncc1-c1cncnc1	6.7
Cc1cc(/C=C/C#N)cc(C)c1Oc1nc(Nc2ccc(N3CCN(S(C)(=O)=O)CC3)c(C#N)c2)ncc1-c1cccnc1	11
Cc1cc(/C=C/C#N)cc(C)c1Oc1nc(Nc2ccc(N3CCN(S(C)(=O)=O)CC3)c(F)c2)ncc1-c1cncnc1	28

System: Human immunodeficiency virus 1
Experiment: Antiviral activity against wild type HIV-1 IIIB infected in human MT4 cells assessed as protection against virus-induced cytopathic effect incubated for 5 days by MTT assay
Assay type: functional, organism-based
Settings: Human immunodeficiency virus 1, IIIB, MT4, 120 h

Structure (SMILES)	EC50 [nM]
Cc1cc(/C=C/C#N)cc(C)c1Oc1nc(Nc2ccc(N3CCS(=O)(=O)CC3)c(C#N)c2)ncc1-c1cnc(F)nc1	220
Cc1cc(/C=C/C#N)cc(C)c1Oc1nc(Nc2ccc(N3CCS(=O)(=O)CC3)c(C#N)c2)ncc1-c1cncnc1	9.1
Cc1cc(/C=C/C#N)cc(C)c1Oc1nc(Nc2ccc(N3CCS(=O)(=O)CC3)c(C#N)c2)ncc1-c1cnc(N)nc1	31
Cc1cc(/C=C/C#N)cc(C)c1Oc1nc(Nc2ccc(N3CCS(=O)(=O)CC3)c(F)c2)ncc1-c1ccc(F)nc1	960
Cc1cc(/C=C/C#N)cc(C)c1Oc1nc(Nc2ccc(N3CCN(S(C)(=O)=O)CC3)c(C#N)c2)ncc1-c1cnc(N)nc1	7.2
Cc1cc(/C=C/C#N)cc(C)c1Oc1nc(Nc2ccc(N3CCN(S(C)(=O)=O)CC3)c(C#N)c2)ncc1-c1ccc(F)nc1	26
Cc1cc(/C=C/C#N)cc(C)c1Oc1nc(Nc2ccc(N3CCS(=O)(=O)CC3)c(C#N)c2)ncc1-c1ccc(F)nc1	27
Cc1cc(/C=C/C#N)cc(C)c1Oc1nc(Nc2ccc(N3CCS(=O)(=O)CC3)c(F)c2)ncc1-c1cncnc1	5.4
Cc1cc(/C=C/C#N)cc(C)c1Oc1nc(Nc2ccc(N3CCN(S(C)(=O)=O)CC3)c(C#N)c2)ncc1-c1cccnc1	7.9
Cc1cc(/C=C/C#N)cc(C)c1Oc1nc(Nc2ccc(N3CCN(S(C)(=O)=O)CC3)c(F)c2)ncc1-c1cncnc1	16

System: Human immunodeficiency virus 1
Experiment: Antiviral activity against NNRTI-resistant HIV-1 harboring E138K mutant infected in human MT4 cells assessed as protection against virus-induced cytopathic effect incubated for 5 days by MTT assay
Assay type: functional, organism-based
Settings: Human immunodeficiency virus 1, MT4, 120 h

Structure (SMILES)	EC50 [nM]
Cc1cc(/C=C/C#N)cc(C)c1Oc1nc(Nc2ccc(N3CCN(S(C)(=O)=O)CC3)c(C#N)c2)ncc1-c1cnc(N)nc1	39
Cc1cc(/C=C/C#N)cc(C)c1Oc1nc(Nc2ccc(N3CCS(=O)(=O)CC3)c(F)c2)ncc1-c1cncnc1	53
Cc1cc(/C=C/C#N)cc(C)c1Oc1nc(Nc2ccc(N3CCN(S(C)(=O)=O)CC3)c(C#N)c2)ncc1-c1cccnc1	37
Cc1cc(/C=C/C#N)cc(C)c1Oc1nc(Nc2ccc(N3CCN(S(C)(=O)=O)CC3)c(F)c2)ncc1-c1cncnc1	96

System: Human immunodeficiency virus 1
Experiment: Antiviral activity against NNRTI-resistant HIV-1 harboring RES056 mutant infected in human MT4 cells assessed as protection against virus-induced cytopathic effect incubated for 5 days by MTT assay
Assay type: functional, organism-based
Settings: Human immunodeficiency virus 1, MT4, 120 h

Structure (SMILES)	EC50 [nM]
Cc1cc(/C=C/C#N)cc(C)c1Oc1nc(Nc2ccc(N3CCN(S(C)(=O)=O)CC3)c(C#N)c2)ncc1-c1cnc(N)nc1	280
Cc1cc(/C=C/C#N)cc(C)c1Oc1nc(Nc2ccc(N3CCS(=O)(=O)CC3)c(F)c2)ncc1-c1cncnc1	1350
Cc1cc(/C=C/C#N)cc(C)c1Oc1nc(Nc2ccc(N3CCN(S(C)(=O)=O)CC3)c(C#N)c2)ncc1-c1cccnc1	800
Cc1cc(/C=C/C#N)cc(C)c1Oc1nc(Nc2ccc(N3CCN(S(C)(=O)=O)CC3)c(F)c2)ncc1-c1cncnc1	1160

System: Human immunodeficiency virus 1
Experiment: Antiviral activity against NNRTI-resistant HIV-1 harboring L100I mutant infected in human MT4 cells assessed as protection against virus-induced cytopathic effect incubated for 5 days by MTT assay
Assay type: functional, organism-based
Settings: Human immunodeficiency virus 1, MT4, 120 h

Structure (SMILES)	EC50 [nM]
Cc1cc(/C=C/C#N)cc(C)c1Oc1nc(Nc2ccc(N3CCN(S(C)(=O)=O)CC3)c(C#N)c2)ncc1-c1cnc(N)nc1	27
Cc1cc(/C=C/C#N)cc(C)c1Oc1nc(Nc2ccc(N3CCS(=O)(=O)CC3)c(F)c2)ncc1-c1cncnc1	90
Cc1cc(/C=C/C#N)cc(C)c1Oc1nc(Nc2ccc(N3CCN(S(C)(=O)=O)CC3)c(C#N)c2)ncc1-c1cccnc1	48
Cc1cc(/C=C/C#N)cc(C)c1Oc1nc(Nc2ccc(N3CCN(S(C)(=O)=O)CC3)c(F)c2)ncc1-c1cncnc1	110
